Experimental data from PubChem BioAssay AID256 (DTP/NCI, 2004).
Inconclusive results and toxic doses are left out. Rule for the calls: active = survival T/C of 150% or more; inactive = T/C below 125% in these data.

System: CD2F1 mice, L1210 leukemia ip, survival T/C
Test: NCI In Vivo Anticancer Drug Screen. Data for tumor model L1210 Leukemia (intraperitoneal) in CD2F1 (CDF1) mice
Settings: endpoint: mean survival time, higher = longer survival
In short: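 In this screen, transplantable tumors were grown in mice given either the compound or its vehicle. Results were expressed as the treated measurement relative to the control measurement.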

[1] = dose: 25.0 mg/kg/injection, schedule: Q04DX003 (ip), vehicle: saline with Tween-80
[2] = dose: 50.0 mg/kg/injection, schedule: Q04DX003 (ip), vehicle: saline with Tween-80
[3] = dose: 100.0 mg/kg/injection, schedule: Q04DX003 (ip), vehicle: saline with Tween-80
[4] = dose: 100.0 mg/kg/injection, schedule: Q01DX001 (ip), vehicle: saline with Tween-80
[5] = dose: 100.0 mg/kg/injection, schedule: Q01DX009 (ip), vehicle: saline with Tween-80
[6] = dose: 200.0 mg/kg/injection, schedule: Q01DX001 (ip), vehicle: saline with Tween-80
[7] = dose: 400.0 mg/kg/injection, schedule: Q01DX009 (ip), vehicle: saline with Tween-80

Measured: T/C

O=C(c1ccccc1)C(Br)C(Br)c1ccc([N+](=O)[O-])cc1 (configuration not stated)
inactive: dose: 100.0 mg/kg/injection, schedule: Q04DX002 (ip), vehicle: saline with Tween-80 89 % of control | dose: 200.0 mg/kg/injection, schedule: Q04DX002 (ip), vehicle: saline with Tween-80 101 % of control | dose: 400.0 mg/kg/injection, schedule: Q04DX002 (ip), vehicle: saline with Tween-80 101 % of control

Cc1cc(C)nc(C)c1.[Cl-].[Cl-].[Cl-].[Cl-].[Pt+2]
inactive: [1] 98 % of control | [2] 101 % of control | [3] 103 % of control

C=CC[N+]12CC=C(CO)C1C(O)CC2 (configuration not stated)
inactive: dose: 100.0 mg/kg/injection, schedule: Q04DX002 (ip), vehicle: saline 101 % of control | dose: 200.0 mg/kg/injection, schedule: Q04DX002 (ip), vehicle: saline 104 % of control | dose: 400.0 mg/kg/injection, schedule: Q04DX002 (ip), vehicle: saline 97 % of control

C/C=C/C(Cc1ccc2ccccc2c1)(C(=O)OCC)C(=O)OCC
inactive: dose: 50.0 mg/kg/injection, schedule: Q01DX009 (ip), vehicle: Klucel (hydroxypropylcellulose) (HPC) 91 % of control | dose: 100.0 mg/kg/injection, schedule: Q01DX009 (ip), vehicle: Klucel (hydroxypropylcellulose) (HPC) 88 % of control | dose: 200.0 mg/kg/injection, schedule: Q01DX009 (ip), vehicle: Klucel (hydroxypropylcellulose) (HPC) 94 % of control

CC(c1ccccc1)S(=O)[O-].[C-]#[O+].[C-]#[O+].[Fe+6].[c-]1[c-][c-][cH-][c-]1 (configuration not stated)
inactive: [1] 94 % of control | [2] 100 % of control | [3] 97 % of control

O=C(O)C(/C=C/c1ccccc1)c1ccccc1 (configuration not stated)
inactive: [4] 112 % of control | [5] 101 % of control | [3] 92 % of control | [6] 95 % of control | dose: 200.0 mg/kg/injection, schedule: Q04DX003 (ip), vehicle: saline with Tween-80 91 % of control | dose: 400.0 mg/kg/injection, schedule: Q01DX001 (ip), vehicle: saline with Tween-80 88 % of control | [7] 103 % of control | dose: 400.0 mg/kg/injection, schedule: Q04DX003 (ip), vehicle: saline with Tween-80 91 % of control

O=C1OC(=O)C2C1C1(c3ccccc3)OC2(c2ccccc2)c2ccccc21 (configuration not stated)
inactive: dose: 50.0 mg/kg/injection, schedule: Q01DX001 (ip), vehicle: saline with Tween-80 100 % of control | [4] 100 % of control | [6] 100 % of control

CCN(C(=O)Nc1ccc(Cl)cc1)c1ccccc1
inactive: [5] 97 % of control | dose: 200.0 mg/kg/injection, schedule: Q01DX009 (ip), vehicle: saline with Tween-80 100 % of control | [7] 96 % of control

CC(C)(C)c1ccc(OCC(=O)O)cc1
inactive: dose: 100.0 mg/kg/injection, schedule: Q04DX003 (ip), vehicle: other 100 % of control | dose: 200.0 mg/kg/injection, schedule: Q04DX003 (ip), vehicle: other 101 % of control

NCCSC1(O)C(=O)c2ccccc2C1=O
inactive: dose: 37.5 mg/kg/injection, schedule: Q01DX009 (ip), vehicle: saline 109 % of control | dose: 75.0 mg/kg/injection, schedule: Q01DX009 (ip), vehicle: saline 109 % of control | dose: 150.0 mg/kg/injection, schedule: Q01DX009 (ip), vehicle: saline 89 % of control

NCCNc1ccc(NCCN)c2c1C(=O)c1ccccc1C2=O
inactive: dose: 16.0 mg/kg/injection, schedule: Q01DX009 (ip), vehicle: acid diluted with saline 98 % of control
active: dose: 2.0 mg/kg/injection, schedule: Q01DX009 (ip), vehicle: acid diluted with saline 159 % of control | dose: 4.0 mg/kg/injection, schedule: Q01DX009 (ip), vehicle: acid diluted with saline 175 % of control | dose: 6.25 mg/kg/injection, schedule: Q01DX009 (ip), vehicle: distilled water + Tween-80 156 % of control | dose: 8.0 mg/kg/injection, schedule: Q01DX009 (ip), vehicle: acid diluted with saline 345 % of control | dose: 12.5 mg/kg/injection, schedule: Q01DX009 (ip), vehicle: distilled water + Tween-80 227 % of control | dose: 25.0 mg/kg/injection, schedule: Q01DX009 (ip), vehicle: distilled water + Tween-80 272 % of control

COC(=O)c1ccc(OC(=O)Nc2ccc(N(CCCl)CCCl)cc2)cc1
inactive: dose: 50.0 mg/kg/injection, schedule: Q01DX001 (ip), vehicle: Klucel (hydroxypropylcellulose) (HPC) 95 % of control
